We go through 1 compound from patent US20260048059A1, “USE OF SUBSTITUTED BENZOXAZOLE AND BENZOFURAN COMPOUNDS FOR THE TREATMENT AND PREVENTION OF DISEASES ASSOCIATED WITH CHRONIC FATIGUE, EXHAUSTION AND/OR EXERTIONAL INTOLERANC” (MITODICURE GMBH, priority 2022, published 2026).

In this test the test system is isolated rat soleus muscle. The test can be described thus: Ex vivo isolated rat soleus muscle: residual contractile force in high KCl (12.5 mM) buffer. To be noted: salbutamol 1 μM alone (control group); 30 min in KCl 12.5 mM buffer, relative to last force in initial buffer.

Molecules are shown by their SMILES.

Text: The isolated rat muscle either soleus muscle or extensor digitorum longus muscle is a well-characterized and well-validated model for the study of the function of the Na^+/K^+ ATPase. The isolated rat soleus muscle is particularly appropriate for experiments ex vivo as it is very thin so that there is no need for blood supply. […] In the experimental setting used, the high KCl concentration buffer causes partial depolarization that leads to sodium influx to disturb and to decrease excitability to subsequently reduce muscle force. Stimulation of Na^+/K^+ ATPase lowers intracellular sodium levels towards physiological levels to restore excitability and muscular force during electrical stimulation.
As the phosphodiesterase isoenzyme subtype 7 (PDE7) is the predominant PDE isoenzyme in skeletal muscle to raise cAMP this ex vivo model is suited for the testing the effect of PDE7 inhibitors and in particular their effect on force generation disturbed by mechanisms that worsen excitability or the energetic situation. […] High level activity of Na^+/K^+ ATPase stimulated by cAMP can counteract the decrease in excitability and the loss of force. […]
Force measurement: The experimental set-up used for force measurements allowed for the simultaneous recordings from 6 muscles in separate incubation chambers in parallel. Force was recorded and stored with a Notocord HEM data acquisition system. […]

As for `CC(C)(C)NCC(O)c1ccc(O)c(CO)c1` (stereo not shown) [Salbutamol], the “Mean residual contractile force in % (SEM in %)” value was 26.6 (3.7); n = 31%.
